These results are taken from US20260034120A1, “TREATING CANCER WITH LONG-ACTING TOPOISOMERASE I INHIBITOR” (priority 2022, published 2026).

By half-life is commonly meant the time needed for the level to fall by half in the phase considered.

For series [1] the following is noted: cited from earlier work; for t½: humans, PLX038 prodrug and SN-38 released from it.
For series [2], the system named is MX-1 xenografts. Briefly: PLX038A, TLZ and combination in MX-1 xenografts. Particulars: PLX038A 15 μmol/kg, TLZ 0.4 μmol/kg/day. It is filed as in vivo, mice. The source says: When tumors reached 170 mm^3, mice received a single intraperitoneal dose of vehicle, a single intraperitoneal dose of PLX038A (15 μmol/kg), a daily oral dose of talazoparib (0.4 μmol/kg) or a combination of PLX038A (15 μmol/kg) and daily oral TLZ (0.4 μmol/kg) starting on either day 0 (same day as PLX038A dosing) or day 4.

In series [3] the test system is 22Rv1 ATM KO xenografts. The experiment in a line: PLX038A, TLZ and combination in 22Rv1 ATM KO xenografts. In kind it is in vivo.
Series [4] relates to metastatic breast cancer with pathogenic germline ATM mutation. Briefly: PLX038 and rucaparib in a patient with ATM deficient breast cancer (NCT04209595). Particulars: single-agent low-dose PLX038 after rucaparib suspension at 4 months. In kind it is in vivo, human. The method, then: A patient with metastatic breast cancer and germline ATM mutation was enrolled in the ongoing dose escalation phase of the trial. […] The patient was initially diagnosed with locally advanced invasive ductal carcinoma and was treated with neoadjuvant chemotherapy followed by surgery and radiation. Nine years later, they developed metastatic disease expressing estrogen and progesterone receptors, and was treated with multiple anti-endocrine therapies and chemotherapies including eribulin, abraxane, and carboplatin. […] At enrolment, they had skin lesions on the breast which were painful and pruritic and in addition had involvement of the lung and bones. […] The mutation results from a C to T substitution at nucleotide position 5908 and creates a premature translational stop signal which is expected to result in an absence or disrupted ATM protein. The variant was not present in population databases such as ExaC but has been reported in the literature in individuals with ataxia-telangiectasia and recognized as a founder mutation in the Costa Rican population.

As for `CCc1c2c(nc3ccc(O)cc13)-c1cc3c(c(=O)n1C2)COC(=O)[C@]3(O)CC` [SN-38], the half-life in series [1] (SN-38 formed from CPT-11) was around 12 h. Moreover, the t½ result in series [1] is “about 5 days”.

As to `Cn1ncnc1[C@H]1c2n[nH]c(=O)c3cc(F)cc(c23)N[C@@H]1c1ccc(F)cc1` [TLZ, talazoparib], the T/C3 wk came to 0.21 in series [2]; 0.76 in series [3] (PLX038A 1.9 μmol/kg, TLZ 0.2 μmol/kg/day); 0.69 in series [3] (PLX038A 1.95 μmol/kg, TLZ 0.3 μmol/kg/day); 0.76 in series [3] (PLX038A 3.75 μmol/kg, TLZ 0.2 μmol/kg/day); 0.69 in series [3] (PLX038A 3.75 μmol/kg, TLZ 0.3 μmol/kg/day); 0.72 in series [3] (PLX038A 7.5 μmol/kg, TLZ 0.4 μmol/kg/day). Besides, the entries for the “inhibition of tumor growth” value in series [3] (TLZ QD PO 0.2 μmol/kg) and in series [3] (TLZ QD PO 0.4 μmol/kg) were “insignificantly inhibitory” and “modestly inhibitory”, respectively.

As for “O-[7-(tetra-polyethylene glycol ether)-carboxamido-1-cyano-2-heptyl]-N-(10′-methoxy-7′-ethyl-camptothecin)-N-[4′-(diethylcarbamoyl)phenyl)]carbamate [PLX038]”, the “duration of sustained suppression of the tumor after treatment initiation” value in series [4] amounted to 12 months. Further, the t½ result in series [1] is on record as “about 5 days”.
